Measurements taken from patent US7868013B2, “Cycloalkyl substituted pyrimidinediamine compounds and their uses” (Rigel Pharmaceuticals, Inc., priority 2004, dated 2011).
Structures can show the parent of a compound that is named as a salt. Where two headings read alike, the source gives them in different places.

Experiments:
Assay type in all cases: cell-based
[1] = tested on: MOLT3 (T lymphoblast acute lymphoblastic leukemia); assay: In vitro antiproliferation assay, MOLT3 cells
Description: (§1) Certain compounds were tested against other cell types for their ability to inhibit proliferation in standard antiproliferation assays.

[2] = tested on: MiaPaCa-2 (pancreatic carcinoma); assay: In vitro antiproliferation assay, MiaPaCa-2 cells
Description: (§2) Cis racemic Compound 15, (1S,2R) enantiomeric Compound 15a and […] enantiomeric Compound 15b were also tested against DU145 (prostate carcinoma), HCT116 (colorectal carcinoma) and MiaPaCa-2 (pancreatic carcinoma) cell lines.
as §1

[3] = tested on: L1210 (mouse lymphocytic leukemia); assay: In vitro antiproliferation assay, L1210 cells
Description: as §1

[4] = tested on: PC3 (prostate adenocarcinoma); assay: In vitro antiproliferation assay, PC3 cells
Description: as §1

[5] = tested on: MOLT4 (T lymphoblast acute lymphoblastic leukemia); assay: In vitro antiproliferation assay, MOLT4 cells
Description: as §1

U2OS (bone osteosarcoma) = assay: In vitro antiproliferation assay, U2OS cells; settings: U20S
Description: as §1

[6] = tested on: HL160 (promyeloblast promyelocytic leukemia); assay: In vitro antiproliferation assay, HL160 cells
Description: as §1

A549 (lung carcinoma) = assay: In vitro antiproliferation assay, A549 cells (TABLE 1 6 point assay; TABLE 2)
Description: as §1

[7] = tested on: COLO 205 (colorectal adenocarcinoma); assay: In vitro antiproliferation assay, COLO 205 cells; settings: Colo205
Description: as §1

[8] = tested on: HELA (cervical adenocarcinoma); assay: In vitro antiproliferation assay, HELA cells
Description: as §1

[9] = tested on: K562 (bone marrow chronic myelogenous leukemia); assay: In vitro antiproliferation assay, K562 cells
Description: as §1

[10] = tested on: SW620 (colorectal adenocarcinoma); assay: In vitro antiproliferation assay, SW620 cells
Description: as §1

[11] = tested on: H1155 (non-small cell lung carcinoma); assay: In vitro antiproliferation assay, H1155 cells; settings: H1155
Description: as §1

[12] = tested on: THP-1 (monocyte acute monocytic leukemia); assay: In vitro antiproliferation assay, THP-1 cells
Description: as §1

H7299 = assay: In vitro antiproliferation assay, H7299 cells
Description: as §1

[13] = tested on: DU145 (prostate carcinoma); assay: In vitro antiproliferation assay, DU145 cells
Description: as §2, §1

[14] = tested on: ASPC-1 (pancreatic adenocarcinoma); assay: In vitro antiproliferation assay, ASPC-1 cells; settings: ASPC1
Description: as §1

Aurora kinase-B = molecular target: T1, Aurora kinase-B (Homo sapiens, UniProt Q96GD4); assay: Functional cellular assay of Aurora kinase-B: phosphorylation of histone H3 in A549 cells
T1 construct: endogenous in cells; host or cells: A549 cells
Description: Enantiomers E1 and E2 (Compounds 60a and 60b, respectively) were tested for their ability to inhibit Aurora kinase-B in a functional cellular assay involving phosphorylation of its substrate, histone H3. For the assay, A549 cells were seeded into the wells of a microtiter tray (5000 cells/well in 100 μl F12K media) late in the afternoon on Day 1. The cells were grown overnight (37° C., 5% CO2) On Day 2, 50 μl nocodazole (1 μM in media) was added to each well, giving a final concentration of 333 nM. Cells were grown for an additional 18 hrs under the same conditions.
On Day 3, 50 μl aliguots of varying concentrations of test compound were added to the wells Test compounds were prepared by 2-fold serial dilution of a […] stock (in DMSO). The diluted compounds in DMSO were then further diluted 1:50 with media to yield a final solution containing 4× test compound, 98% media, 2% DMSO. After incubation, the media/test compound was washed and the cells fixed with 2% paraformaldehyde (in Dulbecco's phosphate buffered saline “DPBS”; 25 μl per well; […] incubation). […] The cells were then stained with a secondary antibody labeled with a fluorescent dye (secondary antibody donkey anti-mouse AlexFluor 488 (Invitrogen Molecular Probes; 1:2000) and DAPI (1:15,000 of 1 mg/ml stock) for 1 hr at room temperature, washed three times with DPBS (200 μl/well) and stored under DPBS (100 μl/well) at 4° C. until ready for analysis.
A Zeiss Axiovert S100 inverted fluorescent microscope with a Plan-NEOFLUAR 10× objective, a Hamamatsu Lightningcure 200 Mercury-Xenon light source and an Omega Optical XF57 quad filter was used for all data collection. […] Images were captured and analyzed in 12-bit format using segmentation and morphological routines contained in the Image Pro software package. Identified nuclei were counted and pixel data for each cell along with experimental conditions was stored in a database using MySQL 4.0.14. […]
For phospho-histone H3 analysis the data is converted to Facs files and analysed using FlowJo. […]

[15] = tested on: U937 (histiocytic lymphoma); assay: In vitro antiproliferation assay, U937 cells; settings: Homo sapiens, U-937
Description: as §1

[16] = tested on: H1299 (non-small cell lung carcinoma); assay: In vitro antiproliferation assay, H1299 cells (TABLE 1 6 point assay; TABLE 2)
Description: as §1

[17] = tested on: HCT116 (colorectal carcinoma); assay: In vitro antiproliferation assay, HCT116 cells; settings: Homo sapiens, HCT-116; HCT116 (colorectal carcinoma) cell line
Description: as §2

[18] = tested on: a variety of tumor cell types; assay: In vitro antiproliferation assays against a variety of tumor cell types (stereoisomer comparison)
Description: Moreover, it has been discovered that the enantiomer corresponding to the (1R,2R,3S,4S) diastereomer of structural formula (IVa) is largely responsible for the potency of the exo-exo cis racemate.
as §1

[19] = Homo sapiens, MIA PaCa-2, Miapaca2, read-out: In Vitro IC50
[20] = Homo sapiens, A549, 6 point assay, A549 cells, read-out: IC50, A549 cells
[21] = Homo sapiens, A549, A549, read-out: In Vitro IC50
[22] = Homo sapiens, DU-145, DU145, read-out: In Vitro IC50
[23] = Homo sapiens, NCI-H1299, 6 point assay, H1299 cells, read-out: IC50, H1299 cells
[24] = Homo sapiens, NCI-H1299, H1299, read-out: In Vitro IC50
[25] = Homo sapiens, MIA PaCa-2, MiaPaCa-2 (pancreatic carcinoma) cell line, read-out: IC50
[26] = Homo sapiens, DU-145, DU145 (prostate carcinoma) cell line, read-out: IC50

T1 sequence (Q96GD4 whole entry): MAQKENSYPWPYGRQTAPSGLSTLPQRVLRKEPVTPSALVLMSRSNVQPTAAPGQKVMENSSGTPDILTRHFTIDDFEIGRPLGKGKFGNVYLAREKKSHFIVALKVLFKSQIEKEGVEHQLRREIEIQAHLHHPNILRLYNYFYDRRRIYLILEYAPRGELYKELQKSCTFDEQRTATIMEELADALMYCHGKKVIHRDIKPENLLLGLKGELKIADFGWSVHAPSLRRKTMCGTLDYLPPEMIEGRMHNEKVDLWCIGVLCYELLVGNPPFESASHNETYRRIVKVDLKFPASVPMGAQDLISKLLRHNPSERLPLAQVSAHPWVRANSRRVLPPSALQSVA

Row | IC50 ([1]; Homo sapiens, MOLT-3) [nM] | IC50 [15] [nM] | IC50 [2, 19] [nM] | IC50 ([3]; Mus musculus) [nM] | IC50 ([5]; Homo sapiens, MOLT-4) [nM] | IC50 (A549 (lung carcinoma); [20]) [nM] | IC50 ([7]; Homo sapiens, COLO 205) [nM] | IC50 ([9]; Homo sapiens) [nM] | IC50 ([10]; Homo sapiens, SW-620) [nM] | IC50 ([12]; Homo sapiens) [nM] | IC50 [16, 23] [nM] | IC50 [2, 25] [nM] | IC50 [17] [nM] | SMILES | IC50 [6] [nM] | also measured
1 | – | – | – | – | – | – | – | – | – | – | – | – | – | Cc1cc(Nc2ncc(F)c(NC3C4C=CC(C4)C3C(N)=O)n2)ccc1N1CCN(C)CC1 (racemic) [Compound 60, 2-exo-3-exo racemic N4-(3-aminocarbonylbicyclo[2.2.1]hept-5-ene-2-yl)-5-fluoro-N2-[3-methyl-4-(4-methylpiperazin-1-yl)phenyl]-2,4-pyrimidinediamine] | ≤ 10 | IC50 [1]: ≤ 10 nM; IC50 ([2]; Miapaca2, read-out: In Vitro IC50): ≤ 10 nM; IC50 [3]: ≤ 1000 nM; IC50 [4]: ≤ 20 nM; IC50 [5]: ≤ 10 nM; IC50 (U2OS (bone osteosarcoma)): ≤ 20 nM; IC50 (A549 (lung carcinoma); A549, read-out: In Vitro IC50): ≤ 20 nM; IC50 [7]: ≤ 10 nM; IC50 ([8]; HELA): ≤ 10 nM; IC50 [9]: ≤ 1000 nM; IC50 [10]: ≤ 1000 nM; IC50 [11]: ≤ 10 nM; IC50 [12]: ≤ 1000 nM; IC50 (H7299): ≤ 20 nM; IC50 ([13]; DU145, read-out: In Vitro IC50): ≤ 20 nM; IC50 [14]: ≤ 20 nM
2 | > 1000 | > 1000 | > 1000 | > 1000 | > 1000 | 1000 to 10000 | > 1000 | > 1000 | > 1000 | ≤ 1000 | 1000 to 10000 | – | – | Cc1cc(Nc2ncc(F)c(NC3C(C(N)=O)[C@H]4C=C[C@@H]3C4)n2)ccc1N1CCN(C)CC1 (stereo in doubt) [Compound 60b, (1S,2R,3S,4R)—N4-(3-Aminocarbonylbicyclo[2.2.1]hept-5-en-2-yl)-5-fluoro-N2-[3-methyl-4-(4-methylpiperazin-1-yl)phenyl]-2,4-pyrimidinediamine] | > 1000 | IC50 (Aurora kinase-B; A549 cells, phospho-histone H3, read-out: IC50 of Aurora kinase-B inhibition): 2490 nM; IC50 ([4]; Homo sapiens, PC-3): > 1000 nM; IC50 (U2OS (bone osteosarcoma); Homo sapiens, U2OS): ≤ 1000 nM; IC50 (A549 (lung carcinoma); [21]): > 1000 nM; IC50 ([8]; Homo sapiens, HeLa): > 1000 nM; IC50 (H7299): > 1000 nM; IC50 [13, 22]: ≤ 1000 nM; IC50 [16, 24]: > 1000 nM
3 | – | – | – | – | – | 100 to 1000 | – | – | – | – | 100 to 1000 | < 1000 | < 1000 | Cc1cc(Nc2ncc(F)c(N[C@H]3CCC[C@H]3C(N)=O)n2)ccc1N1CCN(C)CC1 (stereo in doubt) [Compound 15a, (1S,2R)—N4-(2-Aminocarbonylcyclopent-1-yl)-5-fluoro-N2-[4-(4-methylpiperazin-1-yl)-3-methylphenyl]-2,4-pyrimidinediamine] | – | –
4 | – | – | – | – | – | 100 to 1000 | – | – | – | – | 100 to 1000 | < 1000 | < 1000 | Cc1cc(Nc2ncc(F)c(NC3CCCC3C(N)=O)n2)ccc1N1CCN(C)CC1 (racemic) [Compound 15, Racemic-cis-N4-(2-Aminocarbonylcyclopent-1-yl)-5-fluoro-N2-[4-(4-methylpiperazin-1-yl)-3-methylphenyl]-2,4-pyrimidinediamine] | – | IC50 [13, 26]: < 1000 nM
5 | ≤ 1000 | ≤ 1000 | ≤ 1000 | ≤ 1000 | ≤ 1000 | – | ≤ 1000 | > 1000 | ≤ 1000 | ≤ 1000 | – | – | – | Cc1cc(Nc2ncc(F)c(N[C@@H]3CCC[C@@H]3C(N)=O)n2)ccc1N1CCN(C)CC1 [compound 222, (1R,2S)-N4-(2-Aminocarbonylcyclopent-1-yl)-5-fluoro-N2-[3-methyl-4-(4-methylpiperazin-1-yl)phenyl]-2,4-pyrimidinediamine Bis Hydrogen Chloride Salt] | ≤ 1000 | IC50 (A549 (lung carcinoma); 6 point assay, A549 cells, read-out: IC50, A549 cells): 100 to 1000 nM; IC50 (A549 (lung carcinoma); [21]): ≤ 1000 nM; IC50 ([16]; 6 point assay, H1299 cells, read-out: IC50, H1299 cells): 100 to 1000 nM; IC50 [16, 24]: ≤ 1000 nM
6 | – | – | – | – | – | – | – | – | – | – | – | – | – | Cc1cc(Nc2ncc(F)c(NC3C4C=CC(C4)C3C(N)=O)n2)ccc1N1CCN(C)CC1 [(1R,2R,3S,4S) diastereomer, N4-(3-aminocarbonylbicyclo[2.2.1]hept-5-en-2-yl)-5-fluoro-N2-[3-methyl-4-(4-methylpiperazin-1-yl)phenyl]-2,4-pyrimidinediamine] | – | Result in cell-based inhibition assays against Aurora kinase B compared to the (1S,2S,3R,4R) diastereomer (Aurora kinase-B; in words): similarly superior results; Potency relative to the endo-endo racemate ([18]; (1R,2R,3S,4S) diastereomer, more potent): 20-50 times; Potency relative to the (1S,2S,3R,4R) diastereomer ([18]; more potent): approximately 1000 fold; IC50s when tested as isolated stereoisomers ([18]; range in words, same cell lines): nanomolar range
7 | – | – | – | – | – | 1000 to 10000 | – | – | – | – | 1000 to 10000 | < 5000 | < 5000 | Cc1cc(Nc2ncc(F)c(N[C@@H]3CCC[C@@H]3C(N)=O)n2)ccc1N1CCN(C)CC1 (stereo in doubt) [Compound 15b, (1R,2S)—N4-(2-Aminocarbonylcyclopent-1-yl)-5-fluoro-N2-[4-(4-methylpiperazin-1-yl)-3-methylphenyl]-2,4-pyrimidinediamine] | – | IC50 [13, 26]: < 5000 nM

Row | SMILES | IC50 ([1]; Homo sapiens, MOLT-3) [nM] | IC50 [15] [nM] | IC50 [2, 19] [nM] | IC50 ([3]; Mus musculus) [nM] | IC50 ([5]; Homo sapiens, MOLT-4) [nM] | IC50 (A549 (lung carcinoma); [20]) [nM] | IC50 ([7]; Homo sapiens, COLO 205) [nM] | IC50 ([9]; Homo sapiens) [nM] | IC50 ([10]; Homo sapiens, SW-620) [nM] | IC50 ([12]; Homo sapiens) [nM] | IC50 [16, 23] [nM] | IC50 [2, 25] [nM] | IC50 [17] [nM] | IC50 [6] [nM] | also measured
8 | Cc1cc(Nc2ncc(F)c(NC3C4C=CC(C4)C3C(N)=O)n2)ccc1N1CCN(C)CC1 (racemic) [compound 221, Racemic-(2-exo, 3-exo)-N4-(3-aminocarbonylbicyclo[2.2.1]hept-5-en-2-yl)-5-fluoro-N2-[3-methyl-4-(4-methylpiparazin-1-yl)phenyl]-2,4-pyrimidinediamine] | ≤ 10 | ≤ 10 | ≤ 10 | ≤ 1000 | ≤ 10 | ≤ 100 | ≤ 10 | ≤ 1000 | ≤ 20 | ≤ 20 | ≤ 100 | – | – | ≤ 10 | IC50 (U2OS (bone osteosarcoma); Homo sapiens, U2OS): ≤ 20 nM; IC50 (A549 (lung carcinoma); A549, read-out: In Vitro IC50): ≤ 10 nM; IC50 ([8]; Homo sapiens, HeLa): ≤ 10 nM; IC50 [13, 22]: ≤ 10 nM; IC50 ([16]; H1299, read-out: In Vitro IC50): ≤ 20 nM; IC50 ([14]; Homo sapiens): ≤ 20 nM
